# Laboratory results published in patent publication US9340575B2, “Agonists and antagonists of the urotensinergic system” (INSTITUT NATIONAL DE LA RECHERCHE SCIENTIFIQUE, priority 2011, dated 2016).
# Square brackets hold non-standard residues; d marks the D form. Peptide text beside a SMILES is read from it. pGlu = O=C1CC[CH](C(=O)O)N1
# How the values were obtained:
# Assay type in all cases: cell-based
# rat thoracic aorta rings [1] = assay: Antagonism of UII- or URP-induced contraction of rat aortic ring; details: pretreatment 10^−6M, 15 min
# Protocol: Male rats (Sprague-Dawley, 250-300 g) were killed by CO2 asphyxiation. The thoracic aorta was then cleared of surrounding tissues and excised from aortic arch to the diaphragm. From each vessel, conjunctive tissues were removed and the clean vessel was cut into 4 mm rings. The endothelium was removed by gently rubbing the vessel's intimal surface. All preparations were placed in 5 ml organ baths filled with oxygenated normal Krebs-Henselheit solution. Contractile responses to 40 mM KCl were used as control at the beginning and at the end of each experiment. Agonistic activity was measured by increasing the concentration of the peptide in the organ chamber (3×10^−11-3×10^−6 M). For antagonist behaviour, thoracic aortic rings were first exposed to URP derivative over a period of 15 min, and then cumulative concentration-response curves to hUII, URP or ET-1 (10^−10-3×10^−6 M) were constructed. The amplitude of the contraction induced by each concentration of peptide was expressed as a percentage of the KCl-induced contraction. Finally, the ability of the antagonist to reverse the hUII-induced contraction was also evaluated. Vessels were pre-contracted with 4 nM hUII (pre-determined EC80) and after the maximum contraction was attained, contractile tone was reversed by adding increasing log unit concentrations of URP derivative. […] Binding and functional experiments were performed at least in triplicate and data, expressed as mean±S.E.M, were analyzed using the Prism software (Graph Pad Software, San Diego, Calif.). In all experiments, n represents the total number of animals studied or individual assays performed. The EC50, pEC50, pIC50 values as well as the Emax value were determined from the concentration-response curves using a sigmoidal dose-response fit with variable slope. Non-competitive antagonist affinities (pKb) were determined using the method of Gaddum where equiactive concentrations of agonist, in the absence or presence of URP derivative, were compared in a linear regression. The resulting slope was used to calculate the equilibrium constant Kb using the following equation: Kb=[B]/(slope−1); where [B] is the antagonist concentration. The slope is calculated from the double reciprocal plot of equiactive concentrations of agonist in the presence and absence of antagonist.
# rat thoracic aorta rings [2] = test system: rat thoracic aorta rings
# Protocol: Binding and functional experiments were performed at least in triplicate and data, expressed as mean±S.E.M, were analyzed using the Prism software (Graph Pad Software, San Diego, Calif.). In all experiments, n represents the total number of animals studied or individual assays performed. The EC50, pEC50, pIC50 values as well as the Emax value were determined from the concentration-response curves using a sigmoidal dose-response fit with variable slope. […] The slope is calculated from the double reciprocal plot of equiactive concentrations of agonist in the presence and absence of antagonist.
# rat thoracic aorta rings [3] = assay: Effect on ET-1-induced contraction of rat aortic ring; details: without [Bip^4]URP
# Protocol: Male rats (Sprague-Dawley, 250-300 g) were killed by CO2 asphyxiation. The thoracic aorta was then cleared of surrounding tissues and excised from aortic arch to the diaphragm. From each vessel, conjunctive tissues were removed and the clean vessel was cut into 4 mm rings. The endothelium was removed by gently rubbing the vessel's intimal surface. All preparations were placed in 5 ml organ baths filled with oxygenated normal Krebs-Henselheit solution. Contractile responses to 40 mM KCl were used as control at the beginning and at the end of each experiment. Agonistic activity was measured by increasing the concentration of the peptide in the organ chamber (3×10^−11-3×10^−6 M). For antagonist behaviour, thoracic aortic rings were first exposed to URP derivative over a period of 15 min, and then cumulative concentration-response curves to hUII, URP or ET-1 (10^−10-3×10^−6 M) were constructed. The amplitude of the contraction induced by each concentration of peptide was expressed as a percentage of the KCl-induced contraction. Finally, the ability of the antagonist to reverse the hUII-induced contraction was also evaluated. Vessels were pre-contracted with 4 nM hUII (pre-determined EC80) and after the maximum contraction was attained, contractile tone was reversed by adding increasing log unit concentrations of URP derivative.
ET-1 pEC50 (rat thoracic aorta rings [3]),Molecule,Effect on URP-associated contraction curve (in words) (rat thoracic aorta rings [1]),Effect on rUII-induced contraction (in words) (rat thoracic aorta rings [1]),Agonist behaviour in aortic ring contraction (in words) (rat thoracic aorta rings [2]),ET-1 Emax (rat thoracic aorta rings [3])
–,"CC(NC(=O)C(NC(=O)CNC(=O)C(Cc1c[nH]cn1)NC(=O)C1CCC(=O)N1)C(C)O)C(=O)N1CCCC1C(=O)NC(CCC(=O)O)C(N)=O (stereo not drawn) [rUII(1-7), Pyr-His-Gly-Thr-Ala-Pro-Glu-NH2] ([pGlu]HGTAPE-NH2; configuration not given here)",significant rightward shift,did not significantly alter,unable to induce the contraction of rat aortic rings,–
8.06±0.15,"endothelin-1 [ET-1, reference compound]",–,–,–,119±6
